Source: ChEMBL document CHEMBL1909046, “DrugMatrix in vitro pharmacology data”
Where a SMILES comes first, the peptide text is derived from it. Bridges are numbered along the chain shown (N, C = ends). [ ]: non-standard residue; d: D form. The star is where a group is joined. Ileψ(thiazoline)Cys = CC[C@H](C)[C@H](N)C1=N[C@H](C(=O)*)CS1; dOrn = NCCC[C@@H](N)C(=O)O

Experiments:
[1] = molecular target: T1, Endothelin-1 receptor (Homo sapiens, UniProt P25101); type: cell membranes, Membrane; conditions: cho-k1; further: in other assays of this panel Not Active means under 50% inhibition at 10 µM
T1 sequence (P25101 whole entry): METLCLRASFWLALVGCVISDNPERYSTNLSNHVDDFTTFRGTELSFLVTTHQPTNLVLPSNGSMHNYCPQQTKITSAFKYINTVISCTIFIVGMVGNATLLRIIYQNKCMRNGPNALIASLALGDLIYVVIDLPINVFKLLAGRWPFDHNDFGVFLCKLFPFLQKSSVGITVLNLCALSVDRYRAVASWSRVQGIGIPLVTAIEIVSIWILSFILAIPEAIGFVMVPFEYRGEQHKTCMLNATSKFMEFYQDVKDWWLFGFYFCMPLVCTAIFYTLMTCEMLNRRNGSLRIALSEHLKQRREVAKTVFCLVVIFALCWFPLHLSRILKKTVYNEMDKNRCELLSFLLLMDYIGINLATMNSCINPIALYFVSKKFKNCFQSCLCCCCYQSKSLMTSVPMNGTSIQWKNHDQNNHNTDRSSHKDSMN

[2] = molecular target: T2, Adenosine receptor A1 (Homo sapiens, UniProt P30542); type: cell membranes, CHO, Membrane; conditions: cho;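 further: radioligand binding assay at the adenosine A1 receptor, with DPCPX serving as the labelled ligand; in other assays of this panel Not Active means under 50% inhibition at 10 µM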
T2 sequence (P30542 whole entry): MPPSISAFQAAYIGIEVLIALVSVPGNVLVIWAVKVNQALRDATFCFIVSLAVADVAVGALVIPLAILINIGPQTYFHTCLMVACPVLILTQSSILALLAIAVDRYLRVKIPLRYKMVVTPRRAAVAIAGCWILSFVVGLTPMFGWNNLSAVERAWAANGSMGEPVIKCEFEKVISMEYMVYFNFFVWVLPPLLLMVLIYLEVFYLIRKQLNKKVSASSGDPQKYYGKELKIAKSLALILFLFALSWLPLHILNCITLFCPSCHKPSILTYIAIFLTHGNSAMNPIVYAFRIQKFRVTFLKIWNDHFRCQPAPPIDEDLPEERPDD

[3] = DRUGMATRIX: GABAA, Muscimol, Central radioligand binding (ligand: [3H] Muscimol); type: cell membranes, Rattus norvegicus, Wistar, Brain, Membrane; conditions: Not Active = under 50% inhibition at 10 µM
[4] = molecular target: T3, Calcitonin receptor (Homo sapiens, UniProt P30988); type: cell membranes, Membrane; conditions: t47d; further: in other assays of this panel Not Active means under 50% inhibition at 10 µM
T3 sequence (P30988 whole entry): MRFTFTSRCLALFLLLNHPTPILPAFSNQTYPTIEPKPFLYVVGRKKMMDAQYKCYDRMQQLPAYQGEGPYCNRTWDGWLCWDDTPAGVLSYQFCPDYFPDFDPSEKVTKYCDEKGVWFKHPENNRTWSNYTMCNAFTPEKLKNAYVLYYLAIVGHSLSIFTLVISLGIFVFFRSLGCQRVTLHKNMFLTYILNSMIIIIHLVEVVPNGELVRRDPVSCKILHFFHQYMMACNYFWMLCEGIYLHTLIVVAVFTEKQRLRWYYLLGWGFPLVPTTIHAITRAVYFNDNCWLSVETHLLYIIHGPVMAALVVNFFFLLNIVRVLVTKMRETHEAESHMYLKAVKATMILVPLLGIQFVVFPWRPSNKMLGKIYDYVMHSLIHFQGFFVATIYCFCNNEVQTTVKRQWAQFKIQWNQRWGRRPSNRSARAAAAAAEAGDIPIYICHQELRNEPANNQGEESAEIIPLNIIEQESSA

[5] = molecular target: T4, Angiotensin-converting enzyme (Oryctolagus cuniculus, UniProt P12822); experiment: biochemical; type: tissue-based, Lung;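 further: enzymatic inhibition of angiotensin-converting enzyme measured with FAPGG as the substrate; in other assays of this panel Not Active means under 50% inhibition at 10 µM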
T4 sequence (P12822 whole entry): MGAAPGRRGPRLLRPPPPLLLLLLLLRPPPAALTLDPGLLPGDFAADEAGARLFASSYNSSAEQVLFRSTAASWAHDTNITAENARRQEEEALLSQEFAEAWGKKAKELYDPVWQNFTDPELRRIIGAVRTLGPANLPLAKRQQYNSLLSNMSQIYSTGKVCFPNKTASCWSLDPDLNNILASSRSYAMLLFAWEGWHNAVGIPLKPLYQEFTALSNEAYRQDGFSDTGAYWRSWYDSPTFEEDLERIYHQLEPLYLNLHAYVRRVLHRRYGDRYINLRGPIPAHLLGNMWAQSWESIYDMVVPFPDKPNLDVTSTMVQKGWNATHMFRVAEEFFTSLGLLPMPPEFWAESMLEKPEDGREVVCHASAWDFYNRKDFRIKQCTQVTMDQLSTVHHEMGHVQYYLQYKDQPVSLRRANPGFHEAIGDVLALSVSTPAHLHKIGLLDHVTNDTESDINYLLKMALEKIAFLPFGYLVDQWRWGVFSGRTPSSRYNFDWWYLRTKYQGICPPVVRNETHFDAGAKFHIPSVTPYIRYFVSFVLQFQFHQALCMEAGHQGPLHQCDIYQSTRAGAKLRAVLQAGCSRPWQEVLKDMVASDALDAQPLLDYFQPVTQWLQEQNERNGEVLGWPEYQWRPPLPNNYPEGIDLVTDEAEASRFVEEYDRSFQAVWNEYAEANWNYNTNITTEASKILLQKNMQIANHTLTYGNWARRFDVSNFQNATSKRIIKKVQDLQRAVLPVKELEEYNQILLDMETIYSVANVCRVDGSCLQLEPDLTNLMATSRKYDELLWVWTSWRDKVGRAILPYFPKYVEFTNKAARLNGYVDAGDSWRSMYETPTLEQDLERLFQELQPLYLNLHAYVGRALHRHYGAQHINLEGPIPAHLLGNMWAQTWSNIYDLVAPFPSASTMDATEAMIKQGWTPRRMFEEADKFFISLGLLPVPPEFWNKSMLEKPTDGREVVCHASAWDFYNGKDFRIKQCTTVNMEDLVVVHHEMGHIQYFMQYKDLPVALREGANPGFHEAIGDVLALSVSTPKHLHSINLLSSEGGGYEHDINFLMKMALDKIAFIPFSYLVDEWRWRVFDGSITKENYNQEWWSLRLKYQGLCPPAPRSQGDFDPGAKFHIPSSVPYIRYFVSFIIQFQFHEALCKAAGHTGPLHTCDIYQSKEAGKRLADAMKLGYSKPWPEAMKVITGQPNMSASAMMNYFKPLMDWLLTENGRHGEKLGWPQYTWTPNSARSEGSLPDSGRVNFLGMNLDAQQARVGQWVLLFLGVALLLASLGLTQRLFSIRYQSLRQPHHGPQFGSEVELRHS

C=C1[C@@H]2CCC3[C@@](CC[C@@H]4[C@H](C(=O)O)C[C@@H](O[C@@H]5O[C@H](CO)[C@@H](OS(=O)(=O)[O-])[C@H](OS(=O)(=O)[O-])[C@H]5OC(=O)CC(C)C)C[C@@]34C)(C2)[C@@H]1O.[K+].[K+] (stereo not given in full) [ATRACTYLOSIDE]
Not Active: IC50 [1] | IC50 [2] | IC50 [3] | Ki [3] | IC50 [4] | IC50 [5]

Cn1cnc([N+](=O)[O-])c1Sc1ncnc2nc[nH]c12 [AZATHIOPRINE]
Not Active: IC50 [1] | IC50 [2] | IC50 [3] | Ki [3] | IC50 [4] | IC50 [5]

CC1(C)S[C@@H]2[C@H](NC(=O)[C@H](NC(=O)N3CCNC3=O)c3ccccc3)C(=O)N2[C@H]1C(=O)O [AZLOCILLIN]
Not Active: IC50 [1] | IC50 [2] | IC50 [3] | Ki [3] | IC50 [4] | IC50 [5]

CC[C@H](C)[C@H](N)C1=N[C@H](C(=O)N[C@@H](CC(C)C)C(=O)N[C@H](CCC(=O)O)C(=O)N[C@H](C(=O)N[C@H]2CCCCNC(=O)[C@H](CC(N)=O)NC(=O)[C@@H](CC(=O)O)NC(=O)[C@H](Cc3cnc[nH]3)NC(=O)[C@@H](Cc3ccccc3)NC(=O)[C@H]([C@@H](C)CC)NC(=O)[C@@H](CCCN)NC2=O)[C@@H](C)CC)CS1 [BACITRACIN] ({Ileψ(thiazoline)Cys}-L[dE]IK[dOrn]I[dF]H[dD]N; lactam 4-C)
Not Active: IC50 [1] | IC50 [2] | IC50 [3] | Ki [3] | IC50 [4] | IC50 [5]

CCOC(=O)c1ccc(N)cc1 [BENZOCAINE]
Not Active: IC50 [1] | IC50 [2] | IC50 [3] | Ki [3] | IC50 [4] | IC50 [5]

OCc1ccccc1 [BENZYL ALCOHOL]
Not Active: IC50 [1] | IC50 [2] | IC50 [3] | Ki [3] | IC50 [4] | IC50 [5]

CC(C)(Oc1ccc(CCNC(=O)c2ccc(Cl)cc2)cc1)C(=O)O [BEZAFIBRATE]
Not Active: IC50 [1] | IC50 [2] | IC50 [3] | Ki [3] | IC50 [4] | IC50 [5]

CCCC[C@@H](CC)COC(=O)c1ccccc1C(=O)OC[C@@H](CC)CCCC [BIS(2-ETHYLHEXYL)PHTHALATE]
Not Active: IC50 [1] | IC50 [2] | IC50 [3] | Ki [3] | IC50 [4] | IC50 [5]

Oc1c(Cl)cc(Cl)cc1Sc1cc(Cl)cc(Cl)c1O [BITHIONOL]
Not Active: IC50 [1] | IC50 [2] | IC50 [3] | Ki [3] | IC50 [4] | IC50 [5]

Brc1ccccc1 [BROMOBENZENE]
Not Active: IC50 [1] | IC50 [2] | IC50 [3] | Ki [3] | IC50 [4] | IC50 [5]

CCCCOC(=O)c1ccc(N)cc1 [BUTAMBEN]
Not Active: IC50 [1] | IC50 [2] | IC50 [3] | Ki [3] | IC50 [4] | IC50 [5]

CC[C@@]1(O)C(=O)OCc2c1cc1n(c2=O)Cc2cc3ccccc3nc2-1 [CAMPTOTHECIN]
Not Active: IC50 [1] | IC50 [2] | IC50 [3] | Ki [3] | IC50 [4] | IC50 [5]

COCc1c(C(C)C)nc(C(C)C)c(/C=C/[C@@H](O)C[C@@H](O)CC(=O)O)c1-c1ccc(F)cc1 [CERIVASTATIN]
Not Active: IC50 [1] | IC50 [2] | IC50 [3] | Ki [3] | IC50 [4] | IC50 [5]

CC(=O)O[C@]1(C(C)=O)CC[C@H]2[C@@H]3C=C(Cl)C4=CC(=O)CC[C@]4(C)[C@H]3CC[C@@]21C [CHLORMADINONE ACETATE]
Not Active: IC50 [1] | IC50 [2] | IC50 [3] | Ki [3] | IC50 [4] | IC50 [5]

O=C1CCc2cc(OCCCCc3nnnn3C3CCCCC3)ccc2N1 [CILOSTAZOL]
Not Active: IC50 [1] | IC50 [2] | IC50 [3] | Ki [3] | IC50 [4] | IC50 [5]
